Reference: the NIST ThermoML archive (doi:10.1016/j.jct.2016.06.016)

Test: refractive index (Na D-line) (dimensionless); xn = mol fraction of the nth substance listed
Settings: 100 kPa, Liquid, Standard Abbe refractometry

CCOC(=O)CCC(=O)OCC [diethyl butanedioate] + CCCCCCO
refractive index
Settings | x1 = 0.0999 | x1 = 0.2 | x1 = 0.3001 | x1 = 0.4 | x1 = 0.4999 | x1 = 0.6 | x1 = 0.7002 | x1 = 0.7999 | x1 = 0.9 | x1 = 1
288.15 K | 1.4192 | 1.419 | 1.4189 | 1.4191 | 1.4193 | 1.4197 | 1.4202 | 1.4207 | 1.4212 | 1.4217
293.15 K | 1.4172 | 1.4169 | 1.4168 | 1.417 | 1.4172 | 1.4176 | 1.418 | 1.4185 | 1.419 | 1.4195
298.15 K | 1.4152 | 1.4148 | 1.4147 | 1.4148 | 1.415 | 1.4154 | 1.4158 | 1.4163 | 1.4168 | 1.4173
303.15 K | 1.4131 | 1.4127 | 1.4126 | 1.4127 | 1.4129 | 1.4133 | 1.4136 | 1.4142 | 1.4147 | 1.4151
308.15 K | 1.4111 | 1.4107 | 1.4105 | 1.4106 | 1.4108 | 1.4111 | 1.4115 | 1.412 | 1.4125 | 1.4129
313.15 K | 1.409 | 1.4086 | 1.4084 | 1.4084 | 1.4086 | 1.4089 | 1.4093 | 1.4098 | 1.4103 | 1.4108
318.15 K | 1.407 | 1.4065 | 1.4063 | 1.4063 | 1.4064 | 1.4068 | 1.4071 | 1.4076 | 1.4082 | 1.4088
323.15 K | 1.4049 | 1.4044 | 1.4042 | 1.4042 | 1.4043 | 1.4046 | 1.405 | 1.4054 | 1.406 | 1.4067

CCOC(=O)CCC(=O)OCC [diethyl butanedioate] + CCCCO
refractive index
Settings | x1 = 0.1 | x1 = 0.2001 | x1 = 0.3 | x1 = 0.3999 | x1 = 0.5 | x1 = 0.6001 | x1 = 0.6998 | x1 = 0.7999 | x1 = 0.8997 | x1 = 1
288.15 K | 1.4042 | 1.4069 | 1.4094 | 1.4116 | 1.4137 | 1.4156 | 1.4173 | 1.419 | 1.4204 | 1.4217
293.15 K | 1.4021 | 1.4048 | 1.4072 | 1.4094 | 1.4115 | 1.4134 | 1.4151 | 1.4168 | 1.4182 | 1.4195
298.15 K | 1.4 | 1.4027 | 1.405 | 1.4073 | 1.4093 | 1.4112 | 1.4129 | 1.4146 | 1.416 | 1.4173
303.15 K | 1.3979 | 1.4005 | 1.4029 | 1.4051 | 1.4071 | 1.409 | 1.4107 | 1.4123 | 1.4138 | 1.4151
308.15 K | 1.3958 | 1.3983 | 1.4007 | 1.4029 | 1.4049 | 1.4068 | 1.4085 | 1.4101 | 1.4116 | 1.4129
313.15 K | 1.3936 | 1.3962 | 1.3985 | 1.4007 | 1.4027 | 1.4046 | 1.4063 | 1.4079 | 1.4094 | 1.4108
318.15 K | 1.3915 | 1.394 | 1.3963 | 1.3985 | 1.4005 | 1.4024 | 1.4041 | 1.4058 | 1.4073 | 1.4088
323.15 K | 1.3894 | 1.3918 | 1.3942 | 1.3963 | 1.3983 | 1.4002 | 1.402 | 1.4036 | 1.4052 | 1.4067

CCOC(=O)CCC(=O)OCC [diethyl butanedioate] + CCCO
refractive index
Settings | x1 = 0.1 | x1 = 0.2 | x1 = 0.2999 | x1 = 0.3998 | x1 = 0.4999 | x1 = 0.6001 | x1 = 0.7001 | x1 = 0.8002 | x1 = 0.8997 | x1 = 1
288.15 K | 1.394 | 1.3993 | 1.4037 | 1.4075 | 1.4107 | 1.4135 | 1.416 | 1.4182 | 1.4201 | 1.4217
293.15 K | 1.3918 | 1.3971 | 1.4016 | 1.4053 | 1.4085 | 1.4113 | 1.4138 | 1.416 | 1.4179 | 1.4195
298.15 K | 1.3897 | 1.395 | 1.3994 | 1.4031 | 1.4063 | 1.4091 | 1.4116 | 1.4138 | 1.4157 | 1.4173
303.15 K | 1.3876 | 1.3928 | 1.3972 | 1.4009 | 1.4041 | 1.4069 | 1.4094 | 1.4116 | 1.4135 | 1.4151
308.15 K | 1.3854 | 1.3906 | 1.3949 | 1.3986 | 1.4018 | 1.4047 | 1.4072 | 1.4094 | 1.4113 | 1.4129
313.15 K | 1.3831 | 1.3883 | 1.3927 | 1.3964 | 1.3996 | 1.4025 | 1.4049 | 1.4072 | 1.4091 | 1.4108
318.15 K | 1.3809 | 1.3861 | 1.3905 | 1.3942 | 1.3974 | 1.4002 | 1.4027 | 1.4049 | 1.4069 | 1.4088
323.15 K | 1.3787 | 1.3839 | 1.3882 | 1.392 | 1.3952 | 1.398 | 1.4005 | 1.4027 | 1.4048 | 1.4067
